Data: PubChem BioAssay AID179 (DTP/NCI, 2004)
Calls of active or inactive are those of the source.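 How the source made its calls: active means compounds giving half or more protection of infected cells from virus-caused growth loss, again on retest; inactive means the rest.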

Tested on: CEM cells HIV-1 protection, formazan growth assay
Experiment: NCI AIDS Antiviral Assay
Settings: for IC50: measured here: growth of uninfected CEM cells
Outline: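 Category rules: moderately active means at least 50% protection on retest, and confirmed active means 100% protection reproducibly. The underlying data came from a formazan growth assay in HIV-1-infected CEM cells.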

SMILES | EC50 [µM] | IC50 [µM] | outcome
CC(C(O)c1ccccc1)C(O)(C(F)(F)F)C(F)(F)F (centres undefined) | > 200 | 95.5 | –
OC1COc2c3ccccc3nn2C1 (centres undefined) | > 1320 | 871 | –
COP(=O)(OC)c1ccc(NCc2cc(O)ccc2O)cc1 | > 55 | 7.94 | –
O=C(/C=C/c1cccs1)c1ccc(Cl)s1 | – | – | inactive
C1CCSCCCCCSCCCCCSCCCCCSCC1 | > 200 | 44.7 | –
CCCCN(CCCC)C(=S)S | > 200 | > 200 | –
O=c1[nH]nc(Cc2ccccc2)n1/N=C/c1ccncc1 | 72.4 | 158 | –
[N-]=[N+]=CC(=O)c1ccccc1C#CCCc1ccccc1 | 46.8 | 67.6 | –
Cc1n[nH]c(=O)n1/N=C/c1cccnc1 | – | – | inactive
CC(C)N(C(=O)C12C3C4C5C3C1(C(=O)O)C5C42)C(C)C (centres undefined) | > 661 | > 661 | –
CC(C)(C)C(=O)OCC1OC(N=[N+]=[N-])C(OC(=O)C(C)(C)C)C(OC(=O)C(C)(C)C)C1OC(=O)C(C)(C)C (centres undefined) | > 200 | > 200 | –
CC(NNC(=O)c1ccncc1)c1ccccc1 (centres undefined) | > 200 | 75.9 | –
CCOC(=O)CCN1C(=O)C(=O)N(c2ccc(OC)cc2)C1=S | > 200 | 31.6 | –
Cc1csc(CCC(N)C(=O)O)n1 (centres undefined) | – | – | inactive
Cc1cccc(-n2c(N)c(-c3nc4ccccc4[nH]3)sc2=S)c1 | > 5.89 | > 5.89 | –
CCCc1cc(=O)oc2c3c(cc(OC(C)CC)c12)O[C@H](C)[C@@H](C)[C@@H]3O (some centres undefined) | 3.63 | 37.2 | –
Cc1ccc2c(c1)C(C(=O)N[C@@H]1C(=O)N3[C@@H]1SC(C)(C)[C@@H]3C(=O)O)OCCC2 (some centres undefined) | > 200 | > 200 | –
O=C1NNC(=O)C2C3C=CC(O3)C12 (centres undefined) | > 200 | > 200 | –
O=C1c2ccccc2C(=O)N1CCn1nc(-c2ccccc2)cc(-c2ccccc2)c1=O | > 12.3 | > 12.3 | –
O=C(Nc1cccc(C(F)(F)F)c1)C(=O)C(C(=O)c1ccc2ccccc2c1)C1OC(=O)c2ccccc21 (centres undefined) | > 50.1 | 21.9 | –
CC1=NN(C(=O)Cc2ccccc2)C(=O)/C1=C\C=C\c1ccccc1 | > 57.5 | > 57.5 | –
CC1=NN(C(=O)c2ccncc2)C(=O)C1 | > 200 | > 200 | –

SMILES | EC50 [µM] | IC50 [µM] | outcome
N#CC(C#N)=CSc1ccccc1 | – | – | inactive
CC(C)(C)OP(O)(=S)OC(C)(C)C | > 200 | > 200 | –
COc1ccc(C2C(Cl)C(=O)N2n2cnc3ccccc3c2=O)cc1 (centres undefined) | > 3.8 | > 3.8 | –
COc1ccc(N2C(=O)C3c4[nH]c5ccc(C)cc5c4C4CCC(c5ccccc5)CC4C3C2=O)cc1 (centres undefined) | – | – | inactive
COC1=C(C)C2CC(=O)OC3CC4C(C)CC(OC(C)=O)C(=O)[C@]4(C)C(C1=O)[C@@]32C (some centres undefined) | – | – | inactive
Cc1cc(C)nc(NC(=O)Nc2cc(Cl)ccc2C)c1 | > 200 | > 200 | –
COC1=C(C(=O)OC(C)(C)C)[C@]2(C)C(C(=O)OC(C)(C)C)C(OC)=C(C(=O)OC(C)(C)C)[C@]2(C)C1C(=O)OC(C)(C)C (some centres undefined) | – | – | inactive
Cc1noc(NS(=O)(=O)c2ccc(N=c3c4ccccc4n(-c4ccccc4)c4ccccc34)cc2)c1C | – | – | inactive
CCCCCCCCCCCCCCCCCCn1[se]c2ccccc2c1=O | > 3.24 | > 3.24 | –
O=C(OCCN1CCCC12CCCCC2)C(c1ccccc1)C1C=CCC1 (centres undefined) | > 200 | 24.5 | –
O=S1c2ccccc2N=C(c2cccs2)CC1c1ccccc1O (centres undefined) | > 10.7 | > 10.7 | –
CC1(C)N([O-])[N+](=O)C1(Br)c1ccccc1 (centres undefined) | > 200 | 145 | –
O=C(Nc1ccccc1)N1CCNC1=S | 162 | > 200 | –
CC1(CC(O)(C(F)(F)F)C(F)(F)F)NC(=O)NC1=O (centres undefined) | > 200 | > 200 | –
CCC[CH2][Sn]1([CH2]CCC)[O]C(=O)c2cccc(C)c2[O]1 | – | – | inactive
O=Cc1ccc2c(c1)CC1(Cc3ccccc3C1)C2 | > 200 | 33.9 | –
O=C(CC12C3C4C1C1C2C3C41CC(=O)NO)NO (centres undefined) | > 251 | 49 | –
CN(C)P1(=O)NCC(C(C)(C)C)CO1 (centres undefined) | > 562 | > 562 | –
CCCCC(=O)c1c(O)c2ccccc2oc1=O | > 200 | 29.5 | –
O=[N+]([O-])c1cccc(C2=NOC(C3CCCCC3)C2)c1 (centres undefined) | > 36.3 | > 36.3 | –
NC(CS)C(=O)O (centres undefined) | > 182 | > 182 | –
CCCCCC=C(c1cc(C(=O)OC)c(OC)c(C(F)(F)F)c1)c1cc(C(=O)OC)c(OC)c(C(F)(F)F)c1 | > 200 | 105 | –
